Reference: patent publication US20230331777A1, “NOVEL PEPTOID COMPOUNDS THAT BIND TO CELL RECEPTOR ACE2 AND PREVENT VIRUS ENTRY INTO CELLS” (priority 2020, published 2023)
Starred links: 1 amine or outer side, 2 acyl side, 3 side chain; linkers in the order of their positions; H or OH if unused. Positions of bridges follow the written chain, without caps; N, C: chain ends. Non-standard residues stand in square brackets, D forms with d. Residues, ends and D or L forms follow the SMILES beside them. Chains are numbered I, II in the order given. N(4-MeOBn)Gly = COc1ccc(CNCC(=O)O)cc1; N((CH2)3OiPr)Gly = CC(C)OCCCNCC(=O)O; X1 = CC(c1ccccc1)N(CC(=O)[*:2])[*:1]; NAllylGly = C=CCNCC(=O)O; Nleu = CC(C)CNCC(=O)O; Nme = COCCNCC(=O)O

Columns and labels:
[1] = molecular target: T1, ACE2 protein levels on cell surface (Homo sapiens, UniProt Q9BYF1); test: ACE2 surface expression by flow cytometry; format: cell-based; settings: H1299 cells, 48 hours
T1 construct: endogenous in cells; host or cells: H1299 human lung cancer cells
T1 sequence (Q9BYF1 18-805): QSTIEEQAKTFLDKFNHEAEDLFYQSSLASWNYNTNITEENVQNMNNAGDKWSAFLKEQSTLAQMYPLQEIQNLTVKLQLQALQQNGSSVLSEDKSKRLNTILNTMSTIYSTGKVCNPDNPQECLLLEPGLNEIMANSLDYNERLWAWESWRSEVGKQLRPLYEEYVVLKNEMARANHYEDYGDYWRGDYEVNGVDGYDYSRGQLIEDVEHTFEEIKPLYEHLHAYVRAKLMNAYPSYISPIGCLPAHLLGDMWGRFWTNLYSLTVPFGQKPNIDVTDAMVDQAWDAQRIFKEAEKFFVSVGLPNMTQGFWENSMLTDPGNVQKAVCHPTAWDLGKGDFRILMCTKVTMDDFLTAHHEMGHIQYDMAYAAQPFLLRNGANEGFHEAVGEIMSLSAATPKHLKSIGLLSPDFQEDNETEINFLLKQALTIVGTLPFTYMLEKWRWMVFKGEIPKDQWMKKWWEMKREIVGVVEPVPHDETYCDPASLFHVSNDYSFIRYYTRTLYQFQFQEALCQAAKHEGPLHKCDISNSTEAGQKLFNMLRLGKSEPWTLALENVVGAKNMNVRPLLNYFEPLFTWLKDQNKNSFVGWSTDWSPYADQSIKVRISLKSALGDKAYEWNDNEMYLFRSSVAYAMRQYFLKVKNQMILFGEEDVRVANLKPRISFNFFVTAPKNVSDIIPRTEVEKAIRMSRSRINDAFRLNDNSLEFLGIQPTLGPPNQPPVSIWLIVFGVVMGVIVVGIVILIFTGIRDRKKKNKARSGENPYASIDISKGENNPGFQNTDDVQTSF
Protocol: H1299 cells were treated with ACE2P1D1 or ACE2P2D1 for 48 hours. ACE2 surface expression was determined by flow cytometry analysis.
Next, Applicant determined whether or not the peptoids in this Example can decrease ACE2 levels on a cell surface.

[2] = tested on: SARS-CoV-2 pseudovirus; format: cell-based, human H1299 cells
[3] = molecular target: T2, ACE2 protein (Homo sapiens, UniProt Q9BYF1); test: Protein Thermal Shift assay; format: binding; settings: 10 µM peptoid
T2 sequence (Q9BYF1 18-805): as above
Protocol: FIGS. 8A-D illustrate that ACE2P1 and ACE2P2 interact directly with ACE2. FIG. 8A provides experimental results from an in vitro pulldown assay for ACE2P1 and ACE2P2. […] The thermal shift assay was carried out on a QuantStudio 3 Real-Time PCR System.
Next, Applicant created the dimers of ACE2P1 and ACE2P2 (FIG. 8B) and performed thermal shift assays using recombinant ACE2 proteins. Thermal shift assay is routinely used in drug discovery to identify protein-ligand interactions. The Applied Biosystems™ Protein Thermal Shift™ assay measures protein thermal stability using a fluorescent protein-binding dye. […] The protein is mixed with the dye and heated. As it unfolds or melts, hydrophobic parts of the protein are exposed and bind to the dye, resulting in fluorescence emission detected by the qPCR system. Binding of a ligand to the protein changes the stability of the protein, resulting in a change in fluorescence intensity.

[4] = tested on: HEK293T cells; test: WST-1 cell viability assay; format: cell-based, human; settings: various concentrations, 48 hours
Protocol: (§1) MCF-7 and HEK293T cells were treated with various concentrations of ACE2P1D1 (FIG. 12A) or ACE2P2D1 (FIG. 12B) for 48 hours. Cell viability was measured by a WST-1 assay.
(§2) To assess whether the peptoids are toxic to human cells, Applicant performed the WST-1 assay.

[5] = tested on: MCF-7 cells; test: WST-1 cell viability assay; format: cell-based, human; settings: various concentrations, 48 hours
Protocol: as §1, §2

[6] = molecular target: T3, ACE2 in human H1299 cells (Homo sapiens, UniProt Q9BYF1); test: ACE2 enzymatic activity in cell homogenates; format: biochemical; settings: captopril 10 µM
T3 construct: endogenous in cells; host or cells: H1299 human lung cancer cells
T3 sequence (Q9BYF1 18-805): as above
Protocol: (§3) Assays were run at 37° C. in an ACE2 reaction buffer containing 10 µM Mca-YVADAPK(Dnp), in a total volume of 100 µl. Fluorescence emission at 405 nm, after excitation at 320 nm, was measured in a microplate reader. Cleavage of the substrate Mca-YVADAPK(Dnp) by ACE2 enzyme produces fluorescence. The strength of the fluorescence indicates the ACE2 enzymatic activity.
(§4) To measure ACE2 activity in cells, cell homogenates were used. To prevent hydrolysis of the substrate by a range of nonmetalloprotease enzymes from the cells, cOmplete™ Protease Inhibitor Cocktail (Roche/Sigma) were added to the cell homogenates. To eliminate the effects of ACE on the substrate, ACE inhibitor captopril (10 µM) was added to the assay.

[7] = molecular target: T4, ACE2 in MCF-7 cells (Homo sapiens, UniProt Q9BYF1); test: ACE2 enzymatic activity in cell homogenates; format: biochemical; settings: MCF-7 cell homogenates, captopril 10 µM
T4 construct: endogenous in cells; host or cells: MCF-7 cells
T4 sequence (Q9BYF1 18-805): as above
Protocol: as §3, §4

[8] = molecular target: T5, ACE2 in Caco-2 cells (Homo sapiens, UniProt Q9BYF1); test: ACE2 enzymatic activity in cell homogenates; format: biochemical; settings: Caco-2 cell homogenates, captopril 10 µM
T5 construct: endogenous in cells; host or cells: Caco-2 cells
T5 sequence (Q9BYF1 18-805): as above
Protocol: as §3, with “in” for “in an”
as §4

[9] = molecular target: T2, ACE2 protein; test: ACE2 expression by western blot; format: cell-based; design: endogenous in cells; host or cells: MCF-7 and Caco-2 cells; settings: MCF-7 and Caco-2 cells, various doses, 48 hours
Protocol: MCF-7 and Caco-2 cells were treated with various concentrations of ACE2P1D1 or ACE2P2D1 for 48 hours. ACE2 expression was determined by western blot analysis.
As ACE2 is important in blood pressure regulation, Applicant assessed whether the peptoids can decrease ACE2 expression in human cells.

[10] = molecular target: SARS-CoV-2 spike protein binding to ACE2 (Homo sapiens, UniProt Q9BYF1); test: GST pull-down assay of spike protein-ACE2 interaction; settings: premixed with ACE2 for 30 minutes; ACE2 detected by western blot
Chain of SARS-CoV-2 spike protein binding to ACE2 (Q9BYF1 18-740): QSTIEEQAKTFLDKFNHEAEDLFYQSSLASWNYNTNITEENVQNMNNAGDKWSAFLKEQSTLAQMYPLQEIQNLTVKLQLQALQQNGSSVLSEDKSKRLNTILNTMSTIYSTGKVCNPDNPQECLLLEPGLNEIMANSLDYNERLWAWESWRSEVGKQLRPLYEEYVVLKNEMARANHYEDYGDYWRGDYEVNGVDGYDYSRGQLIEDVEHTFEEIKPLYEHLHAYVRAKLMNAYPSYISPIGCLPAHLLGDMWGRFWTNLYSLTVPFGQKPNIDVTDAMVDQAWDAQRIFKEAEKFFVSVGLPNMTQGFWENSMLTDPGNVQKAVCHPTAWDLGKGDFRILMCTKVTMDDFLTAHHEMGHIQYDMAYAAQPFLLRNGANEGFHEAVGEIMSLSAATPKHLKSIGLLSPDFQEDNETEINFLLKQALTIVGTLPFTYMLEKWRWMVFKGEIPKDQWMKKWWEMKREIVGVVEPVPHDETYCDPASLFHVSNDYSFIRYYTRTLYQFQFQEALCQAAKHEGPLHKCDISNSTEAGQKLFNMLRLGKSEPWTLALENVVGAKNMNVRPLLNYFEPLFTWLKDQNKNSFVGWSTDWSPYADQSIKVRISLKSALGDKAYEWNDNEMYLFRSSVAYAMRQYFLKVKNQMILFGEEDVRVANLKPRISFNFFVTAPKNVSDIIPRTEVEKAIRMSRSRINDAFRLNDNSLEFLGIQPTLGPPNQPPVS

[11] = molecular target: T2, ACE2 protein; test: ACE2 enzymatic activity, Mca-YVADAPK(Dnp) fluorescence assay; format: biochemical; settings: up to 10 µM peptoid; 10 µM Mca-YVADAPK(Dnp), 37° C.
Protocol: as §3
ACE2 is an enzyme that lowers blood pressure by catalyzing the hydrolysis of angiotensin II. […] Applicant assessed the effects of ACE2P1D1 and ACE2P2D1 on ACE2 enzyme activity on recombinant ACE2 protein.

[12] = molecular target: T2, ACE2 protein; test: in vitro pulldown assay with peptoid conjugated beads; format: binding; settings: 4° C. overnight, western blotting
Protocol: To confirm a direct interaction between the peptoids and ACE2, Applicant performed in vitro pulldown assays. Recombinant human ACE2 protein was incubated with ACE2P1 or ACE2P2 conjugated beads at 4° C. overnight. The beads were then washed with PBS buffer for 3 times, and the binding proteins were eluted with 1% SDS. The yielded lysates were then applied onto 10% SDS-PAGE gel and subjected to western blotting (FIG. 8A).

[13] = tested on: ACE2 expressing MCF-7 cells; test: on-bead cell binding of resynthesized peptoids (OBTC two-color); format: cell-based, human; settings: peptoid on tentagel bead; ACE2+ red stained, ACE2- green stained MCF-7 cells
Protocol: FIG. 6 provides experimental results illustrating that on-bead peptoids ACE2P1 and ACE2P2 bind to human ACE2 positive cells. The compounds ACE2P1 and ACE2P2 were resynthesized on the tentagel bead and incubated with ACE2 expressing MCF-7 cells (red stained) and ACE2 negative MCF-7 cells (green stained) individually as well as 1:1 mixture of red and green cells.
Applicant resynthesized the identified ACE2P1 and ACE2P2 peptoids on-bead and introduced human ACE2^+ (red stained) and ACE2^- (green stained) MCF-7 cells separately to these two peptoid carrying beads.

| SMILES | ACE2 protein levels on cell surface [1] | SARS-CoV-2 pseudovirus infection [2] | change in protein melting temperature [3] | cell viability [4] | cell viability [5] | enzymatic activity of ACE2 [6] | enzymatic activity of ACE2 [7] | enzymatic activity of ACE2 [8] | expression levels of ACE2 protein [9] | binding of spike protein to ACE2 [10] | ACE2 enzyme activity [11] | pull down of ACE2 protein [12] | binding of peptoid beads to ACE2+ versus ACE2- MCF-7 cells [13] |
| --- | --- | --- | --- | --- | --- | --- | --- | --- | --- | --- | --- | --- | --- |
| C=CCN(CC(=O)N(CC(=O)NC(CCCCN)C(=O)NC(CCSC)C(=O)NCCCCC(NC(=O)C(CCSC)NC(=O)C(CCCCN)NC(=O)CN(C(=O)CN(CC=C)C(=O)CN(Cc1ccc(OC)cc1)C(=O)CN(C(=O)CN(CCOC)C(=O)CNCC(C)C)C(C)c1ccccc1)C(C)c1ccccc1)C(N)=O)C(C)c1ccccc1)C(=O)CN(Cc1ccc(OC)cc1)C(=O)CN(C(=O)CN(CCOC)C(=O)CNCC(C)C)C(C)c1ccccc1 (stereo not shown) [ACE2P1D1] (I: H-[Nleu][Nme][X1][N(4-MeOBn)Gly][NAllylGly][X1]KMK-NH2 / II: H-[Nleu][Nme][X1][N(4-MeOBn)Gly][NAllylGly][X1]KM; amide I:9-II:C; configuration not given here) | did not decrease the ACE2 protein levels on cell surface | effective in inhibiting SARS-CoV-2 pseudovirus infection | increase in protein melting temperature | no effects on the viability | no effects on the viability | did not affect the enzymatic activity of ACE2 | did not affect the enzymatic activity of ACE2 | did not affect the enzymatic activity of ACE2 | did not decrease the expression levels of ACE2 protein | prevented the binding of spike protein to ACE2 | no effects on ACE2 activity | – | – |
| C=CCN(CC(=O)N(CC(=O)NC(CCCCN)C(=O)NC(CCSC)C(N)=O)C(C)c1ccccc1)C(=O)CN(Cc1ccc(OC)cc1)C(=O)CN(C(=O)CN(CCOC)C(=O)CNCC(C)C)C(C)c1ccccc1 (stereo not shown) [ACE2P1] (H-[Nleu][Nme][X1][N(4-MeOBn)Gly][NAllylGly][X1]KM-NH2; configuration not given here) | – | – | – | – | – | – | – | – | – | increased the binding of spike protein to ACE2 | – | able to pull down the ACE2 protein | bound only to red stained ACE2^+ cells |
| COCCN(CC(=O)NC(CCCCN)C(=O)NC(CCSC)C(=O)NCCCCC(NC(=O)C(CCSC)NC(=O)C(CCCCN)NC(=O)CN(CCOC)C(=O)CN(CC(C)C)C(=O)CN(CC(C)C)C(=O)CN(CCCOC(C)C)C(=O)CN(Cc1ccc(OC)cc1)C(=O)CNCc1ccc(OC)cc1)C(N)=O)C(=O)CN(CC(C)C)C(=O)CN(CC(C)C)C(=O)CN(CCCOC(C)C)C(=O)CN(Cc1ccc(OC)cc1)C(=O)CNCc1ccc(OC)cc1 (stereo not shown) [ACE2P2D1] (I: H-[N(4-MeOBn)Gly][N(4-MeOBn)Gly][N((CH2)3OiPr)Gly][Nleu][Nleu][Nme]KMK-NH2 / II: H-[N(4-MeOBn)Gly][N(4-MeOBn)Gly][N((CH2)3OiPr)Gly][Nleu][Nleu][Nme]KM; amide I:9-II:C; configuration not given here) | did not decrease the ACE2 protein levels on cell surface | effective in inhibiting SARS-CoV-2 pseudovirus infection | increase in protein melting temperature | no effects on the viability | no effects on the viability | did not affect the enzymatic activity of ACE2 | did not affect the enzymatic activity of ACE2 | did not affect the enzymatic activity of ACE2 | did not decrease the expression levels of ACE2 protein | prevented the binding of spike protein to ACE2 | no effects on ACE2 activity | – | – |
| COCCN(CC(=O)NC(CCCCN)C(=O)NC(CCSC)C(N)=O)C(=O)CN(CC(C)C)C(=O)CN(CC(C)C)C(=O)CN(CCCOC(C)C)C(=O)CN(Cc1ccc(OC)cc1)C(=O)CNCc1ccc(OC)cc1 (stereo not shown) [ACE2P2] (H-[N(4-MeOBn)Gly][N(4-MeOBn)Gly][N((CH2)3OiPr)Gly][Nleu][Nleu][Nme]KM-NH2; configuration not given here) | – | – | – | – | – | – | – | – | – | increased the binding of spike protein to ACE2 | – | able to pull down the ACE2 protein | bound only to red stained ACE2^+ cells |
